Measured values from PubChem BioAssay AID1919010 (Molecular Pharmacology Branch, DTP, NCI, 2023).

Test system: Hs578T complex spheroid growth, percent test/control
Test: Anticancer human tumor Hs578T cell line growth inhibition [AhR];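 also: luminescent viability signal as a proxy for spheroid growth; spheroids exposed to agents for one week after three days of growth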
Conditions: for IC50: curve of first compound; for viability, T/C: stronger effect = lower value
Excerpt: Multicellular complex tumor spheroid response to aryl hydrocarbon receptor antagonists in combination with a variety of drugs and investigational agents in selected tumor cell lines
The current study was undertaken to assess response to aryl hydrocarbon receptor antagonists in combination with standard-of-care drugs and investigational agents in solid tumor complex spheroid models. Complex spheroids include a stromal component modeled by human endothelial cells (HUVEC) and fibroblasts modeled by human mesenchymal stem cells (MSCs). The concentration ranges selected for each drug and investigational agent were based upon clinically achievable concentrations if the clinical Cmax of the agent was known.
Compounds. The drugs and investigational agents: BAY 2416964 (NSC825713), GNF351 (NSC835774), CH-223191 (NSC835775), CPI-455 (NSC825282), aza-TdCyd (NSC777586), decitabine (NSC127716), belinostat (NSC758774), entinostat (NSC756642), pevonedistat (NSC761192), tazemetostat (NSC777109), talazoparib (NSC765396), olaparib (NSC753686), selinexor (NSC780203), nedisertib (M3814, NSC802822), bortezomib (NSC756655), venetoclax (NSC766270), doxorubicin (NSC123127), elimusertib (BAY189344, NSC800525), ceralasertib (AZD6738, NSC777638), TAK-243 (NSC785004), alisertib (NSC759677), etoposide (NSC141540), topotecan (NSC609699), eribulin (NSC707389), gemcitabine (NSC613327), carboplatin (NSC241240), cisplatin (NSC119875), and SN-38 (NSC673596) were obtained from the National Cancer Institute (NCI) Developmental Therapeutics Program Chemical Repository (32). The FDA-approved anticancer drug set is available from the Developmental Therapeutics Program at https://dtp.cancer.gov/organization/dscb/obtaining/available plates.htm. […] The stock solutions were prepared in dimethyl sulfoxide (DMSO, Sigma-Aldrich, St. Louis, MO, cat. D2650), except for the platinum compounds which were prepared in saline (Quality Biological, Gaithersburg, MD, cat. 114-055-101), at 800-fold the tested concentration and stored at -70 degrees C prior to their use. All drugs and investigational agents were tested over a range starting from a high concentration at or near the clinical Cmax and decreasing in half-log increments. If the clinical Cmax for an agent had not been determined, the highest concentration tested was 10 microM (Table 1).
Cell Culture. All cells were maintained in an incubator at 37 degrees C and 5% CO2 with 95% humidity. The PDC lines were cultured according to standard operating procedures established by the NCI PDMR (https://pdmr.cancer.gov). Briefly, all PDCs were thawed and cultured in Matrigel-coated flasks prepared with a working solution of 1X Ham's F-12 nutrient mix, without supplementation (Invitrogen, Waltham, MA, cat. 11765054), 100 U/mL penicillin-streptomycin (Invitrogen, cat. 15140122), and 2.5% Matrigel (Corning Inc., Corning, NY, cat. 354248) for the first three passages. All PDCs were cultured in complete DMEM/F-12 media containing advanced DMEM/F-12 (Invitrogen, cat. 12634028), 4.9% defined fetal bovine serum, heat inactivated (HyClone Laboratories Inc., Logan, UT, cat. SH30070.03HI), 389 ng/mL hydrocortisone (Sigma-Aldrich, cat. H4001), 9.7 ng/mL human EGF recombinant protein (Invitrogen, cat. PHG0313), 23.4 microg/mL adenine (Sigma-Aldrich, cat. A2786), 97.3 U/mL penicillin-streptomycin (Invitrogen, cat. 15140122), 1.9 mM L-glutamine (Invitrogen, cat. 25030081), and 9.7 microM Y-27632 dihydrochloride (Tocris Bioscience, Bristol, United Kingdom, cat. 1254). The PDCs were cultured in complete DMEM/F12 media without 10 microM Y-27632 dihydrochloride for at least two passages prior to the screen. The established cell lines NCI-H1341 and […] were cultured in DMEM/F-12, HEPES (Invitrogen, cat. 11330032), 5% defined fetal bovine serum (HyClone Laboratories Inc., cat. SH30070.03), ITS premix universal culture supplement [insulin (5 microg/mL), transferrin (5 microg/mL), and selenious acid (5 ng/mL)] […]

[1] = second compound 0.1 µM, first compound 0.0316 µM
[2] = second compound 0.1 µM, first compound 0.1 µM
[3] = second compound 0.316 µM, first compound 0.0316 µM
[4] = second compound 0.316 µM, first compound 0.1 µM
[5] = second compound 1 µM, first compound 0.0316 µM
[6] = second compound 1 µM, first compound 0.1 µM
[7] = second compound 3.16 µM, first compound 0.0316 µM
[8] = second compound 3.16 µM, first compound 0.1 µM
[9] = second compound 10 µM, first compound 0.0316 µM
[10] = second compound 10 µM, first compound 0.1 µM
[11] = second compound 0.1 µM, first compound 0.316 µM
[12] = second compound 0.1 µM, first compound 1 µM
[13] = second compound 0.1 µM, first compound 3.16 µM
[14] = second compound 0.1 µM, first compound 10 µM
[15] = second compound 0.316 µM, first compound 0.316 µM
[16] = second compound 0.316 µM, first compound 1 µM
[17] = second compound 0.316 µM, first compound 3.16 µM
[18] = second compound 0.316 µM, first compound 10 µM
[19] = second compound 1 µM, first compound 0.316 µM
[20] = second compound 1 µM, first compound 1 µM
[21] = second compound 1 µM, first compound 3.16 µM
[22] = second compound 1 µM, first compound 10 µM
[23] = second compound 3.16 µM, first compound 0.316 µM
[24] = second compound 3.16 µM, first compound 1 µM
[25] = second compound 3.16 µM, first compound 3.16 µM
[26] = second compound 3.16 µM, first compound 10 µM
[27] = second compound 10 µM, first compound 0.316 µM
[28] = second compound 10 µM, first compound 1 µM
[29] = second compound 10 µM, first compound 3.16 µM
[30] = second compound 10 µM, first compound 10 µM

| SMILES | IC50 (second compound 0.1 µM) [µM] | IC50 (second compound 0.316 µM) [µM] | IC50 (second compound 1 µM) [µM] | IC50 (second compound 3.16 µM) [µM] | IC50 (second compound 10 µM) [µM] | viability, T/C [1] [%] | viability, T/C [2] [%] | viability, T/C [3] [%] | viability, T/C [4] [%] | viability, T/C [5] [%] | viability, T/C [6] [%] | viability, T/C [7] [%] | viability, T/C [8] [%] | viability, T/C [9] [%] | viability, T/C [10] [%] | viability, T/C [11] [%] | viability, T/C [12] [%] | viability, T/C [13] [%] | viability, T/C [14] [%] | viability, T/C [15] [%] | also measured |
| --- | --- | --- | --- | --- | --- | --- | --- | --- | --- | --- | --- | --- | --- | --- | --- | --- | --- | --- | --- | --- | --- |
| CC[C@@]1(O)C(=O)OCc2c1cc1n(c2=O)Cc2cc3c(CN(C)C)c(O)ccc3nc2-1 + CC(CO)NC(=O)c1cc(-c2ccc(Cl)cc2)nn(-c2cnn(C)c2)c1=O | > 0.1 | > 0.1 | > 0.1 | > 0.1 | > 0.1 | 83.9 | 82 | 89.6 | 84 | 91.4 | 103 | 82.9 | 86.8 | 84.5 | 83.7 | – | – | – | – | – | viability, T/C (second compound 0.1 µM, first compound 0.000316 µM): 120%; viability, T/C (second compound 0.1 µM, first compound 0.001 µM): 115%; viability, T/C (second compound 0.1 µM, first compound 0.00316 µM): 114%; viability, T/C (second compound 0.1 µM, first compound 0.01 µM): 103%; viability, T/C (second compound 0.316 µM, first compound 0.000316 µM): 112%; viability, T/C (second compound 0.316 µM, first compound 0.001 µM): 110%; viability, T/C (second compound 0.316 µM, first compound 0.00316 µM): 115%; viability, T/C (second compound 0.316 µM, first compound 0.01 µM): 98.9%; viability, T/C (second compound 1 µM, first compound 0.000316 µM): 126%; viability, T/C (second compound 1 µM, first compound 0.001 µM): 123%; viability, T/C (second compound 1 µM, first compound 0.00316 µM): 120%; viability, T/C (second compound 1 µM, first compound 0.01 µM): 109%; viability, T/C (second compound 3.16 µM, first compound 0.000316 µM): 115%; viability, T/C (second compound 3.16 µM, first compound 0.001 µM): 118%; viability, T/C (second compound 3.16 µM, first compound 0.00316 µM): 132%; viability, T/C (second compound 3.16 µM, first compound 0.01 µM): 93.8%; viability, T/C (second compound 10 µM, first compound 0.000316 µM): 110%; viability, T/C (second compound 10 µM, first compound 0.001 µM): 117%; viability, T/C (second compound 10 µM, first compound 0.00316 µM): 110%; viability, T/C (second compound 10 µM, first compound 0.01 µM): 103% |
| COc1cc(C2c3cc4c(cc3C(OC3OC5COC(C)OC5C(O)C3O)C3COC(=O)C23)OCO4)cc(OC)c1O (stereo not given) + CC(CO)NC(=O)c1cc(-c2ccc(Cl)cc2)nn(-c2cnn(C)c2)c1=O | > 10 | > 10 | > 10 | > 10 | > 10 | 103 | 109 | 111 | 99.2 | 108 | 123 | 116 | 102 | 83.7 | 88.3 | 87.9 | 79.2 | 81 | 64.9 | 105 | viability, T/C [16]: 83.2%; viability, T/C [17]: 73.8%; viability, T/C [18]: 57.1%; viability, T/C [19]: 88.7%; viability, T/C [20]: 80.1%; viability, T/C [21]: 89.1%; viability, T/C [22]: 60.5%; viability, T/C [23]: 99.9%; viability, T/C [24]: 86.2%; viability, T/C [25]: 79.2%; viability, T/C [26]: 60.7%; viability, T/C [27]: 89.1%; viability, T/C [28]: 76.6%; viability, T/C [29]: 83.4%; viability, T/C [30]: 58.9% |
| Nc1ccn(C2OC(CO)C(O)C2(F)F)c(=O)n1 (stereo not given) + CC(CO)NC(=O)c1cc(-c2ccc(Cl)cc2)nn(-c2cnn(C)c2)c1=O | > 10 | 9.59 | > 10 | > 10 | 0.77 | 54.6 | 58.7 | 60.3 | 63.5 | 61.1 | 70.3 | 59.4 | 61.8 | 55.1 | 60.6 | 62.1 | 54 | 51.9 | 52.4 | 52.5 | viability, T/C [16]: 52.3%; viability, T/C [17]: 57.3%; viability, T/C [18]: 47.9%; viability, T/C [19]: 55.3%; viability, T/C [20]: 50.5%; viability, T/C [21]: 57.9%; viability, T/C [22]: 50.4%; viability, T/C [23]: 59.5%; viability, T/C [24]: 54.5%; viability, T/C [25]: 53.6%; viability, T/C [26]: 58.5%; viability, T/C [27]: 47.7%; viability, T/C [28]: 44.6%; viability, T/C [29]: 51.5%; viability, T/C [30]: 49.1% |
